Test results from patent US9781933B2, “Tetrazolinone compound and use thereof” (Sumitomo Chemical Company, Limited, priority 2013, dated 2017).

Test system: wheat rust fungus (Puccinia recondita)
Assay: Comparative Test Example: wheat rust control at 50 ppm
Type: in vivo
Details: 50 ppm foliar spray; wheat (SHIROGANE); inoculated 5 days after spraying
Description: After spraying, the plant was air-dried so as to dry the dilution on the surface of the leaves. […] After the inoculation, the plant was placed at 23° C. for one day under dark and high humidity condition, and cultivated, under illumination at 20° C. for 8 days, and then the area of lesion was investigated.

| Compound | area of lesion relative to that on an untreated plant |
| --- | --- |
| Cc1cccc(-n2nnn(C)c2=O)c1COc1ccn(-c2ccc(F)cn2)n1 [compound 40] | ≤ 30% |
| Cn1nnn(-c2ccccc2COc2ccn(-c3ccc(F)cc3)n2)c1=O [control compound, 1-(2-{[1-(4-fluorophenyl)-1H-pyrazol-3-yl]oxymethyl}-phenyl)-4-methyl-1,4-dihydrotetrazol-5-one] | ≥ 70% |
